Measurements taken from ChEMBL document CHEMBL5346971, “Discovery of the First Irreversible HDAC6 Isoform Selective Inhibitor with Potent Anti-Multiple Myeloma Activity” (J Med Chem, 2023).
The source made the active and inactive calls. The calls are words filed in the database; no cut-off is given here.

How the values were obtained:
RPMI-8226 [1] = assay: Induction of cell cycle arrest in human RPMI-8226 cells assessed as proportion of cells at G1 phase at 0.1 uM incubated for 24 hrs by PI staining based flow cytometry (reference value: 33.5%); format: functional
[2] = biological target: T1, Polyamine deacetylase HDAC10 (Homo sapiens, UniProt Q969S8); assay: Inhibition of N-terminal FLAG-tagged human recombinant HDAC10 (2 to 631 residues) expressed in baculovirus-infected Sf9 cells using Acetyl-Arg-His-Lys(acety1)-Lys-(acety1)-AMC as substrate peincubated with enzyme for 1 hr followed by substrate addition and measured after 30 mins by fluorescence based analysis
T1 sequence (Q969S8 whole entry): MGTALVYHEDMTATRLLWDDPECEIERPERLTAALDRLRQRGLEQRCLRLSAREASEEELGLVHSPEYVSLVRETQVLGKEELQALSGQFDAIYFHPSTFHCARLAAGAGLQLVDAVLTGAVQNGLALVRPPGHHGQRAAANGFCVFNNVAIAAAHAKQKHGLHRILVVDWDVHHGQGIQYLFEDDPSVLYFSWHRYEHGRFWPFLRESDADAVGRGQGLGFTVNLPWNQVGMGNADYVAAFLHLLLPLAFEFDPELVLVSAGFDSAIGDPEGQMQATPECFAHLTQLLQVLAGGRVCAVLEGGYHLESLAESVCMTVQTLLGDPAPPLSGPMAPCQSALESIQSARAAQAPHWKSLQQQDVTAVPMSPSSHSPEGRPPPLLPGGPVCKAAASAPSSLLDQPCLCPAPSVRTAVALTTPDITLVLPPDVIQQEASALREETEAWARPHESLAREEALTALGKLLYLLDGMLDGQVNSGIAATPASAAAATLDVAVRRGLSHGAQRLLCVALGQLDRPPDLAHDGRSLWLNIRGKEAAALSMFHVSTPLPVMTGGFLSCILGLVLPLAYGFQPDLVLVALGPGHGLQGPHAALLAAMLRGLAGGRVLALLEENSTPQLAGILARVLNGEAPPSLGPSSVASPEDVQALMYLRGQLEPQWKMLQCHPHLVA

[3] = biological target: T2, Protein deacetylase HDAC6 (Homo sapiens) (UniProt Q9UBN7); details: A549, dose 80.0 nM, time 5.0 hrs
T2 sequence (whole entry): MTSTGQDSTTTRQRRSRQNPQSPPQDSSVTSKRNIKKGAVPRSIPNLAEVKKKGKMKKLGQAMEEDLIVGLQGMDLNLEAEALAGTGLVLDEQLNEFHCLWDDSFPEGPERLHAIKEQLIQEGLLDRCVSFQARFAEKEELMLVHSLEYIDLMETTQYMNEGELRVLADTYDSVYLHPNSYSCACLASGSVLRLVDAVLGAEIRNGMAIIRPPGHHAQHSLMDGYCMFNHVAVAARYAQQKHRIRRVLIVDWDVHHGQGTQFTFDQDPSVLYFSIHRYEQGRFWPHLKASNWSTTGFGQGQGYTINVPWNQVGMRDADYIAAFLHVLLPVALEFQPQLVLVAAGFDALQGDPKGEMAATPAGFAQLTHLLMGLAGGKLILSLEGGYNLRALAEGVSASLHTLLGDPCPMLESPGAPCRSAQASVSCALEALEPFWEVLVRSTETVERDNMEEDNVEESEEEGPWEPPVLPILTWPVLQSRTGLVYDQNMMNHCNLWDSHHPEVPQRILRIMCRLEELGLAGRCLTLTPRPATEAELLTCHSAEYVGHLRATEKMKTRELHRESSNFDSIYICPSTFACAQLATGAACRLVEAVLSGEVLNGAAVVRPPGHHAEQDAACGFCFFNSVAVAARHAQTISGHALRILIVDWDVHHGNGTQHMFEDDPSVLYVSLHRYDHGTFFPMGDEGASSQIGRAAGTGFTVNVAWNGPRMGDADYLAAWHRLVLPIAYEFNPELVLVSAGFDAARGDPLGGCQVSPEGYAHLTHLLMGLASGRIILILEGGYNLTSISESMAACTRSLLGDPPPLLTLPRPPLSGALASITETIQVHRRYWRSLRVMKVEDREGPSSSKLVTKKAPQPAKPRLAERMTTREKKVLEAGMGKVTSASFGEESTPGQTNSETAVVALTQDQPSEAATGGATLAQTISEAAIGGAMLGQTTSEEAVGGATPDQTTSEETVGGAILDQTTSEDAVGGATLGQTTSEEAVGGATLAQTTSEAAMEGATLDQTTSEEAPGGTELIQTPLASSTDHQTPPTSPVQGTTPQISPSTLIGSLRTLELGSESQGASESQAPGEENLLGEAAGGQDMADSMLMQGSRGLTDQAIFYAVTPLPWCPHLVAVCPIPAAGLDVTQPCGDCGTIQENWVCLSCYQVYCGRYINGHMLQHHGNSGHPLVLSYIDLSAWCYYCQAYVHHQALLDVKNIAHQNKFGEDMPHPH

[4] = Intrinsic clearance in rat liver microsomes in presence of NADPH by LC-MS/MS analysis; format: ADME, Microsome; details: read-out: CLH
Histone deacetylase 2 = Histone deacetylase 2 (Homo sapiens, UniProt Q92769); assay: Inhibition of C-terminal FLAG-tagged human full length recombinant HDAC2 (1 to 488 residues) expressed in Sf9 cells using Boc-Lys(acetyI)-AMC as substrate preincubated with enzyme for 1 hr followed by substrate addition and measured after 30 mins by fluorescence based analysis
Chain of Histone deacetylase 2 (Q92769 whole entry, the tested form may be a part): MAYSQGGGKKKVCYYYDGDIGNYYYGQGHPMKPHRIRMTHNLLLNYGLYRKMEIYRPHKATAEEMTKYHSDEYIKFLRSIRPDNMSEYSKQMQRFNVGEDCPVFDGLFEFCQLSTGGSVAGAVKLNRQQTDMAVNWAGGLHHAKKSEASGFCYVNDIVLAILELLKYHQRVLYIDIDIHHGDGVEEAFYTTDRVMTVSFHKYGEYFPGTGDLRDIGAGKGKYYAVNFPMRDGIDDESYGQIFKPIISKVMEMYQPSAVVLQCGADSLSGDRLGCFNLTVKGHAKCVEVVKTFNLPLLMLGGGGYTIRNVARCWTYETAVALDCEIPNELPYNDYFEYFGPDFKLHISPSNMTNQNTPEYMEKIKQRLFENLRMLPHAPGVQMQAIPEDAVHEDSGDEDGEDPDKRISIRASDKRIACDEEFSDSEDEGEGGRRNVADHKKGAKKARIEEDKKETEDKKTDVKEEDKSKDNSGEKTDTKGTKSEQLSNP

RPMI-8226 [5] = assay: Induction of apoptosis in human RPMI-8226 cells assessed as proportion of early apoptotic cells at 0.5 uM incubated for 24 hrs by AnnexinV-FITC/PI staining based flow cytometry (reference value: 10.63%); format: functional, cell-based
[6] = biological target: Class 1 histone deacetylase (Homo sapiens) (UniProt Q13547+O15379+Q92769+Q9BY41); assay: Irreversible inhibition of class 1 HDAC in human A549 cells assessed as acetyl histone H3 level at 0.4 uM incubated for 5 hrs followed by drug wash-out for 1 hr by western blot analysis relative to control; format: cell-based
Chain of Class 1 histone deacetylase (Homo sapiens) (O15379 whole entry, looked up, the tested form may be a part): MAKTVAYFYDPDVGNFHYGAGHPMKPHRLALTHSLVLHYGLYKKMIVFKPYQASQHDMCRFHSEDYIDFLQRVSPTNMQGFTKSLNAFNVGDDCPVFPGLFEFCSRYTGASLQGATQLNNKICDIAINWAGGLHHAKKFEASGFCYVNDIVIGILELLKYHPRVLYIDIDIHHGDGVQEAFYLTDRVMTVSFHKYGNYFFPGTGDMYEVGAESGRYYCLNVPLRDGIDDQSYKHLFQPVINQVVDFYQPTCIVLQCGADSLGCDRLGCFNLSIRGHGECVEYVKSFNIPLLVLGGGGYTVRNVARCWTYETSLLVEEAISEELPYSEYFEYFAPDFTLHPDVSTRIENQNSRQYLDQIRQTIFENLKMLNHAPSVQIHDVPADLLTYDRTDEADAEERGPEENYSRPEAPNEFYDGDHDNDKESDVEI
Chain of Class 1 histone deacetylase (Homo sapiens) (Q13547 whole entry, looked up, the tested form may be a part): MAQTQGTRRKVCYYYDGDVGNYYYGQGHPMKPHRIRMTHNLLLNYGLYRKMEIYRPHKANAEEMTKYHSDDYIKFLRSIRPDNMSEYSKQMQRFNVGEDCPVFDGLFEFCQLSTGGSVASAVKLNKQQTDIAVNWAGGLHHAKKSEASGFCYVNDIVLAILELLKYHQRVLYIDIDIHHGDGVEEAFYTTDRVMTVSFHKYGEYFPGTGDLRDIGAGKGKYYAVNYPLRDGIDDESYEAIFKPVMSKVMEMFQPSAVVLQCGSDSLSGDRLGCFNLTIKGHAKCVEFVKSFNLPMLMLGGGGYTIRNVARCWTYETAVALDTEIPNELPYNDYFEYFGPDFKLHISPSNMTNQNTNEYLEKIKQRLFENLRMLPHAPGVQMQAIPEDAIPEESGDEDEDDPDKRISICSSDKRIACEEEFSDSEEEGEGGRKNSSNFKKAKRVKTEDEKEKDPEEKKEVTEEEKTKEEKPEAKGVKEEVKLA
Chain of Class 1 histone deacetylase (Homo sapiens) (Q92769 whole entry, looked up, the tested form may be a part): as the sequence (Q92769 whole entry, the tested form may be a part) above
Chain of Class 1 histone deacetylase (Homo sapiens) (Q9BY41 whole entry, looked up, the tested form may be a part): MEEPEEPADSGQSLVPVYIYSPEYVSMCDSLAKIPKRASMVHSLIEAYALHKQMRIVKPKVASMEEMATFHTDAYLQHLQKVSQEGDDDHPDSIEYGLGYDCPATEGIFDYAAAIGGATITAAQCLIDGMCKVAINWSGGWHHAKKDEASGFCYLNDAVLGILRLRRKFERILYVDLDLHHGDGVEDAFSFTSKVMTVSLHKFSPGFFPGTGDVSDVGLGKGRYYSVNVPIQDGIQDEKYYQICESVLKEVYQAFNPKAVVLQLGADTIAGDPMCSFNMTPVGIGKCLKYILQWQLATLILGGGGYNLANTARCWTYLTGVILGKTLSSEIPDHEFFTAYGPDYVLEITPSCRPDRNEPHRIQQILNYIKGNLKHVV

Histone deacetylase 9 = Histone deacetylase 9 (Homo sapiens, UniProt Q9UKV0); assay: Inhibition of C-terminal His-tagged human recombinant HDAC9 (604 to 1066 residues) expressed in baclovirus-infected Sf9 cells using Boc-Lys(trifluoroacety1)-AMC as substrate preincubated with enzyme for 1 hr followed by substrate addition and measured after 30 mins by fluorescence based analysis
Chain of Histone deacetylase 9 (Q9UKV0 whole entry, the tested form may be a part): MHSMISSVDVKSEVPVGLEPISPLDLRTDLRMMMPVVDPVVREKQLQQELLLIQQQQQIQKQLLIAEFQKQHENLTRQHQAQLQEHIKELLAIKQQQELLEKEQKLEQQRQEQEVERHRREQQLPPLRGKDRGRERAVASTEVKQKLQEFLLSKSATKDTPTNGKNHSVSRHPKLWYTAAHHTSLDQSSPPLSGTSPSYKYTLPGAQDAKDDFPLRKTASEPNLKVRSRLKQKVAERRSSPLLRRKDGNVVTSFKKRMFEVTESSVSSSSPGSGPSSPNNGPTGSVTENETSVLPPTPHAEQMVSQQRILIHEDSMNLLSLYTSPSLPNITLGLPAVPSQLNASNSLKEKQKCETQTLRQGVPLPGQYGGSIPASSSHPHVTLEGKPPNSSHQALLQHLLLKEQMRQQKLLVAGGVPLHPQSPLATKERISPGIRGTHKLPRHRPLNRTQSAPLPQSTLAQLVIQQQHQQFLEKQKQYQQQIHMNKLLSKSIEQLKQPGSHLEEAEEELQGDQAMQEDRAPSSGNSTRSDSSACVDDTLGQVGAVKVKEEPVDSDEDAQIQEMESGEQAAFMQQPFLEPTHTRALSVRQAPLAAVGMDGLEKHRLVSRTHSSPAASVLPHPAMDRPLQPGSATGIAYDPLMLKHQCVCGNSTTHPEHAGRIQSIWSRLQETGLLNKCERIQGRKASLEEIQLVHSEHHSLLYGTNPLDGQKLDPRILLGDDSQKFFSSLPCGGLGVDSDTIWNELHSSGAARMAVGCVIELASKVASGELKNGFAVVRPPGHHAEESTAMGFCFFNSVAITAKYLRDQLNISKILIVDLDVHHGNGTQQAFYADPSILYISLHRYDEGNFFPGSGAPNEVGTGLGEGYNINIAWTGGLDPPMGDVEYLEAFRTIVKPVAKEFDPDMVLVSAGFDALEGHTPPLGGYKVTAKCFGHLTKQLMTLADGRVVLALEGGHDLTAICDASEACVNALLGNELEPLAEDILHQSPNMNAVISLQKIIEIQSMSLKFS

Histone deacetylase 11 = biological target: T3, Histone deacetylase 11 (Homo sapiens, UniProt Q96DB2); assay: Inhibition of human full length recombinant HDAC11 (1 to 347 residues) expressed in Sf9 cells using acetyl-ETDKmyr-AMC as substrate preincubated with enzyme for 1 hr followed by substrate addition and measured after 30 mins by fluorescence based analysis
T3 sequence (Q96DB2 whole entry): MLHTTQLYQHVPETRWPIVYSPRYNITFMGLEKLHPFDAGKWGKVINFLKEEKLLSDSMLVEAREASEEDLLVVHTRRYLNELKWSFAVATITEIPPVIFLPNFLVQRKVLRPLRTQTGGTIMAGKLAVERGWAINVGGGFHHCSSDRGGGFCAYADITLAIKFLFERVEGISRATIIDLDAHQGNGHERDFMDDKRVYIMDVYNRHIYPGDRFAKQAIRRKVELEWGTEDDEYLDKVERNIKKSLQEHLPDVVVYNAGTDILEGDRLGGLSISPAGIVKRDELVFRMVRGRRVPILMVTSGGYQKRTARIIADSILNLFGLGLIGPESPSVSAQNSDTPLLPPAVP

- IC50 [2]: 1800 nM
- inhibition [3]: Active
- CLint scaled [4]: 270 mL/min/kg
- IC50 (Histone deacetylase 2): 1500 nM
- fold change (FC) [6]: 1.2
- IC50 (Histone deacetylase 9): > 40000 nM
- IC50 (Histone deacetylase 11): 5300 nM
SMILES: O=C(NO)c1ccc(COc2no[n+]([O-])c2S(=O)(=O)c2ccccc2)cc1
- Activity (RPMI-8226 [1]): 28.8%
- Activity (RPMI-8226 [5]): Active
